Reference: ChEMBL document CHEMBL1146377, “Antitrypanosomal activity of quaternary naphthalimide derivatives” (Bioorg Med Chem Lett, 2007)

What was measured:
[1] = tested on: Trypanosoma brucei brucei; assay: Antitrypanosomal activity against Trypanosoma brucei brucei after 48 hrs; type: functional, organism-based
[2] = Cytotoxicity against J774.1 cells after 48 hrs; type: cell-based; conditions: Mus musculus, J774.1, 48 h

Row | SMILES | IC50 [1] [µM] | IC50 [2] [µM]
1 | CC(C)(CN1C(=O)c2cccc3cc(N)cc(c23)C1=O)C[N+](C)(C)CCCCCC[N+](C)(C)CCCN1C(=O)c2ccccc2C1=O | 24.2 | > 100
2 | N=C(N)c1ccc(OCCCCCOc2ccc(C(=N)N)cc2)cc1 [PENTAMIDINE ISETHIONATE] | 0.0027 | 
3 | CC(C)(CN1C(=O)c2cccc3cccc(c23)C1=O)C[N+](C)(C)CCCCCCBr | 0.69 | > 100
4 | CC(C)(CN1C(=O)c2cccc3ccc([N+](=O)[O-])c(c23)C1=O)C[N+](C)(C)CCCCCC[N+](C)(C)CCCN1C(=O)c2ccccc2C1=O | 8.78 | > 100
5 | NCCC[C@](N)(C(=O)O)C(F)F [EFLORNITHINE] | 22.9 | 
6 | CCC[N+](C)(C)CC(C)(C)CN1C(=O)c2cccc3cccc(c23)C1=O | 1.2 | > 100
7 | CC(C)(CN1C(=O)c2cccc3ccc(N)c(c23)C1=O)C[N+](C)(C)CCCCCC[N+](C)(C)CCCN1C(=O)c2ccccc2C1=O | 5.95 | > 100
8 | CC(C)(CN1C(=O)c2cccc3cc([N+](=O)[O-])cc(c23)C1=O)C[N+](C)(C)CCCCCC[N+](C)(C)CCCN1C(=O)c2ccccc2C1=O | 22.9 | > 100

Continued, in another order:

Row | IC50 [1] [µM] | SMILES | IC50 [2] [µM]
9 | 4.62 | Cc1ccc2c(c1)C(=O)N(CCC[N+](C)(C)CCCCCC[N+](C)(C)CC(C)(C)CN1C(=O)c3cccc4cccc(c34)C1=O)C2=O | > 100
10 | 4.27 | CC(C)(CN1C(=O)c2cccc3cccc(c23)C1=O)C[N+](C)(C)CCCCCC[N+](C)(C)CCCN1C(=O)c2cccc3cccc(c23)C1=O | > 100
11 | 0.03 | CN(CCCCCCN(C)CCCN1C(=O)c2cccc3cccc(c23)C1=O)CCCN1C(=O)c2cccc3cccc(c23)C1=O | 3.24
12 | 0.3 | Cc1ccc(C(=O)Nc2ccc(S(=O)(=O)O)c3cc(S(=O)(=O)O)cc(S(=O)(=O)O)c23)cc1NC(=O)c1cccc(NC(=O)Nc2cccc(C(=O)Nc3cc(C(=O)Nc4ccc(S(=O)(=O)O)c5cc(S(=O)(=O)O)cc(S(=O)(=O)O)c45)ccc3C)c2)c1 [SURAMIN HEXASODIUM] | 
13 | 1.17 | CC(C)(CN1C(=O)c2cccc3cccc(c23)C1=O)C[N+](C)(C)CCCCCC[N+](C)(C)CC(C)(C)CN1C(=O)c2cccc3cccc(c23)C1=O | > 100
14 | 27.9 | Cc1ccc2c(c1)C(=O)N(CCC[N+](C)(C)CCCCCC[N+](C)(C)CCCN1C(=O)c3cccc4cccc(c34)C1=O)C2=O | > 100
